Entries after “also recorded” stand apart in the source; their conditions may differ.
Columns and labels:
[1] = test system: TRE-tk-luciferase construct (rat malic enzyme TRE); test: Somatic transgenesis in xenopus dorsal muscle with TRE-tk-luciferase; format: in vivo; conditions: T3 10^-8 M vs -T3; measured four days after treatment; FIG. 5
Method: The somatic transgenesis is carried out either: • by injection of 1 μl of naked DNA into the dorsal muscle of the embryo. The DNA concentration is 100 ng/μl to 5 μg/μl in 0.07 M NaCL; • by microinjection of 1 μl of DNA/PEI (polyethyleneimine) into the brain of the embryo. The DNA concentration is between 50 and 500 ng/μl in 5% glucose. 3.1. […] 3.2.

[2] = test system: DR4(X3)-GFP construct (consensus TRE); conditions: thyroid hormone 10^-8 M in the water of the aquarium; FIG. 8
Method: The germinal transgenesis is carried out according to the protocol described by Kroll and Amaya (1996).

[3] = test system: TRE-tk-luciferase construct (rat malic enzyme TRE); test: Somatic transgenesis with TRE-tk-luciferase in dorsal muscle of pretreated xenopus tadpoles; format: in vivo; conditions: tadpoles pretreated with perchlorate and T3 10^-11 M; then T3 10^-8 M for 48 hours vs control; FIG. 6
Method: FIG. 6: Somatic transgenesis by injection, into the dorsal muscle of pretreated xenopus animals, of the construct TRE-tk-luciferase. The animals are pretreated for 48 hours with 10^−11 M of T3 thyroid hormone, and then rinsed for 24 hours. The animals are then transfected by injection into the dorsal muscle of 1 mg/animal of the construct TRE-tk-luciferase. The animals are then treated for 48 hours (10^−8 M) or in the absence (−T3) of thyroid hormone. Two days after treatment, the luciferase expression is measured. […] According to an alternative method, the transgenic animals according to the invention are pretreated with perchlorate for one month at 1 g/l, and are then sensitized with the test compound, such as the T3 hormone (10^−11 M), for 18 to 48 hours without food. The animals are then washed in a medium containing no T3 and are fed for 36 hours. The construct (for example TRE-tk-luciferase) is injected into the dorsal muscle of the xenopus embryo (1 mg/animal). Out of the 24 tadpoles that were pretreated and then subjected to somatic transgenesis, twelve tadpoles are treated for 48 hours with T3 thyroid hormone at 10^−8 M; the other twelve tadpoles that remain serve as a control.

[4] = test system: xenopus stromelysin 3 promoter (several TREs) coupled to luciferase in XTC cells; test: XTC cell transfection with the stromelysin 3/luciferase construct; format: cell-based; conditions: T3 10^-8 M in culture medium vs absence of T3 (basal level), FIG. 4
Method: The construct is transferred into XTC cells by complexing the DNA with PEI (22 kDA, at 6 equivalents), the transfected cells are cultured in the presence (10^−8 M) or in the absence (−T3) of T3 thyroid hormone.
The transgenic constructs are tested in XTC xenopus cells in culture.
The XTC cells are obtained from carcasses of xenopus tadpoles just before metamorphosis (Pudney et al., 1973). The cells are cultured at ambient temperature, for up to 20 passages.
The cells are transfected by complexing the DNA with 22 kDa polyethyleneimine (PEI) at 6 equivalents (Ouatas et al., 1998).
The protocol makes it possible to rapidly verify the constructs and thus to verify that said constructs respond correctly to the substances, such as the T3 thyroid hormone when it is injected into the cell culture medium.

[5] = test system: TRE-tk-EGFP construct (rat malic enzyme TRE); test: Somatic transgenesis in xenopus dorsal muscle with TRE-tk-EGFP; format: in vivo; conditions: T3 10 nM vs -T3; detected four days later; FIG. 7
Method: FIG. 7: Somatic transgenesis by injection, into the dorsal muscle of xenopus, of the construct TRE-tk-EGFP. The animals are transfected by injection into the dorsal muscle of […] of the construct TRE-tk-EGFP. The animals are then treated for 48 hours in the presence (+T3 10 nM) or in the absence (−T3) of T3 thyroid hormone. […] The somatic transgenesis is carried out either: • by injection of 1 μl of naked DNA into the dorsal muscle of the embryo. The DNA concentration is 100 ng/μl to 5 μg/μl in 0.07 M NaCL; • by microinjection of 1 μl of DNA/PEI (polyethyleneimine) into the brain of the embryo. The DNA concentration is between 50 and 500 ng/μl in 5% glucose. 3.3. The TRE-tk-EGFP construct was injected into the dorsal muscle of a xenopus embryo ([…]). Half the animals are treated with T3 thyroid hormone at 10 nM.

- expression of the reporter protein (luciferase) [1]: much greater expression
- expression of the reporter protein (luciferase) [3]: much greater expression
SMILES: N[C@@H](Cc1cc(I)c(Oc2ccc(O)c(I)c2)c(I)c1)C(=O)O [T3 thyroid hormone, Tri-iodothyronine]
- emission of fluorescence (GFP) [2]: emission of fluorescence throughout the nervous system and in the limb buds
- expression of the luciferase reporter protein [4]: greater expression
- expression of the reporter protein (EGFP) [5]: much greater expression; also recorded: bioluminescence is visible in the cells of the treated animal

— patent US8476484B2, “Transgenic clawed frog embryos and use thereof as detectors of endocrine disrupters in the environment” (Centre National de la Recherche Scientifique (CNRS), priority 2002, dated 2013)
